According to patent US20110065760A1, “COMPOUNDS FOR THE INHIBITION OF ROTAMASES AND USE THEREOF” (Jerini AG, priority 2002, published 2011):
Read-outs that look alike come from different tables or passages of the source.

What was measured:
[1] = WST-1 cytotoxicity assay, HL-60; type: cell-based; conditions: human, HL-60 cells (acute myeloid leukemia); WST-1, 48 h incubation; read-out: EC50 class, cytotoxic effect, CL-1 (HL-60)
Description: (§1) For this cytotoxic evaluation of the compounds the commercial available WST-1 assay (Roche) was used according to the manufacturer's instructions. The assay is based on the cleavage of the tetrazolium salt WST-1 by mitochondrial dehydrogenases found in viable cells. In general compounds were added to cells cultured in 96-well plates at 37° C. After 48 h of incubation 10 μl of WST-1 solution was added. The formazan dye was analyzed with an ELISA plate reader at (450 vs. 620) nm. CL-1: human acute myeloid leukemia, HL-60 CL-2: human cervix carcinoma, HeLa CL-3: human prostate carcinoma, PC-3 CL-4: human colon adenocarcinoma, Caco-2 CL-5: human breast adenocarcinoma, MCF-7

[2] = WST-1 cytotoxicity assay, MCF-7; type: cell-based; conditions: human, MCF-7 cells (breast adenocarcinoma); WST-1, 48 h incubation; read-out: EC50 class, cytotoxic effect, CL-5 (MCF-7)
Description: as §1

[3] = WST-1 cytotoxicity assay, HeLa; type: cell-based; conditions: human, HeLa cells (cervix carcinoma); WST-1, 48 h incubation; read-out: EC50 class, cytotoxic effect, CL-2 (HeLa)
Description: as §1

[4] = WST-1 cytotoxicity assay, PC-3; type: cell-based; conditions: human, PC-3 cells (prostate carcinoma); WST-1, 48 h incubation; read-out: EC50 class, cytotoxic effect, CL-3 (PC-3)
Description: as §1

hPin1 = hPin1 (Homo sapiens, UniProt Q13526); experiment: protease-coupled PPIase assay, hPin1; type: biochemical; conditions: 6 nM hPin1, substrate Ac-Ala-Ala-Ser(PO3H2)-Pro-Arg-pNA, trypsin, pH 7.8, 6° C.; read-out: IC50 class, Target T-1 (hPin1)
hPin1, sequence (Q13526 whole entry): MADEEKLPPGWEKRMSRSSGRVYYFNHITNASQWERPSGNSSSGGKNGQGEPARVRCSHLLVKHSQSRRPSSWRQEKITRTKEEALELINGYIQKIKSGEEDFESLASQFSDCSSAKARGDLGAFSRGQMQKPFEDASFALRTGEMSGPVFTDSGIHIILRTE

[5] = system: tumor cell lines (HL-60, HeLa, PC-3, Caco-2, MCF-7); experiment: WST-1 cytotoxicity assay, tumor cell lines (panel statement); type: cell-based, human; conditions: WST-1, 48 h; table 4
Description: as §1

hFKBP12 = hFKBP12 (Homo sapiens, UniProt P62942); experiment: protease-coupled PPIase assay, hFKBP12; type: biochemical; conditions: 20 nM hFKBP12, substrate Suc-Ala-Phe-Pro-Phe-pNA, chymotrypsin, pH 7.8, 6° C.; read-out: IC50 class, Target T-2 (hFKBP12)
hFKBP12, sequence (P62942 whole entry): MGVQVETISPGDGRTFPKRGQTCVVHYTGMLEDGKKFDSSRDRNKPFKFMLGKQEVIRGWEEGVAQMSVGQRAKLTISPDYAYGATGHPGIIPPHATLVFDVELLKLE

LpCyp18 = LpCyp18 (Legionella pneumophila, UniProt Q5ZRZ4); experiment: biochemical; conditions: IC50 class, Target T-4 (LpCyp18)
LpCyp18, sequence (Q5ZRZ4 1-164): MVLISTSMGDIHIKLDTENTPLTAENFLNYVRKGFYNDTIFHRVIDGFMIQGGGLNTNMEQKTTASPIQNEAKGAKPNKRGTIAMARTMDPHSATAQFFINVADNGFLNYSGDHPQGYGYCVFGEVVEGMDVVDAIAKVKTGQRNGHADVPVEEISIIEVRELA

EcParvulin = EcParvulin (Escherichia coli, UniProt P0A9L5); experiment: protease-coupled PPIase assay, EcParvulin; type: biochemical
EcParvulin, sequence (P0A9L5 whole entry): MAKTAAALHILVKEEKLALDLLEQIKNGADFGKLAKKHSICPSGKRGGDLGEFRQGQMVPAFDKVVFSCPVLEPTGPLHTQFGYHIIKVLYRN

hCyp18 = hCyp18 (Homo sapiens, UniProt P62937); experiment: protease-coupled PPIase assay, hCyp18; type: biochemical; conditions: 10 nM hCyp18, substrate Suc-Ala-Phe-Pro-Phe-pNA, chymotrypsin, pH 7.8, 6° C.; read-out: IC50 class, Target T-3 (hCyp18)
hCyp18, sequence (P62937 whole entry): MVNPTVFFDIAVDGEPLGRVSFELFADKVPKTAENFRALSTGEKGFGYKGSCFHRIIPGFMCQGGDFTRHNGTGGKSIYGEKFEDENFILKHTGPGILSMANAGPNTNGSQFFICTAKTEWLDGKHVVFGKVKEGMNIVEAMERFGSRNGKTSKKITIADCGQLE

Papain = molecular target: T1, Papain (Carica papaya, UniProt P00784); experiment: papain assay; type: biochemical; conditions: 16 μg/ml papain, 2 mM Bz-DL-Arg-pNA, pH 6.5, 30° C., 30 min incubation; read-out: IC50 class, Target T-6 (Papain)
T1 sequence (P00784 134-345): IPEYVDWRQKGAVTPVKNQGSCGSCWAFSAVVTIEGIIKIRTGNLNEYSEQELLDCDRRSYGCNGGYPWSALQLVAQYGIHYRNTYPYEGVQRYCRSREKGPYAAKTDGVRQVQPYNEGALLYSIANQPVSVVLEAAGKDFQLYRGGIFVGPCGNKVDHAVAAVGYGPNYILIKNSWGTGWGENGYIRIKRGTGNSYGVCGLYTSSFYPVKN
Description: (§2) In order to investigate the impact of some of the inventive compounds on the activity of key proteases the following assay was performed: Protease activities were measured spectrophotometrically at 30° C. according to Schomburg and Salzmann (Schomburg, B.; Salzmann M. GBF: Enzyme Handbook. Springer Verlag, Berlin Heidelberg, 1991) and Bergmeyer et al. (Bergmeyer, H. U.; Bergmeyer, J.; Graβl, M. Methods of Enzymatic Analysis, Vol. V Enzymes 3: Peptides, Proteinases and Their Inhibitors. pp 55-371, VCH, Weinheim, 1988). The release of 4-nitroaniline was determined at 390 nm with a Spectramax Plus UV/Vis spectrophotometer (Molecular Devices). The cathepsin B assay was performed in a reaction mixture containing 0.2 μg/ml cathepsin B, 2 mM Z-Arg-Arg-pNA in 88 mM KH2PO4, 12 mM Na2HPO4, 1.33 mM EDTA, 0.03% Brij 35 (pH 5.8). The trypsin assay was carried out in a reaction mixture containing 0.1 μg/ml trypsin and 120 μM Ac-Ala-Ala-Ser(PO3H2)-Pro-Arg-pNA in 35 mM HEPES (pH 7.8) and the papain assay in a mixture consisting of 16 μg/ml papain and 2 mM Bz-DL-Arg-pNA in 10 mM Na2HPO4, 2 mM L-Cys, 5 mM EDTA (pH 6.5). In general, reactions were started by addition of peptide substrate after a 30 min incubation of 1-100 μM effector with given concentrations of enzyme.

cathepsin B = cathepsin B (Homo sapiens, UniProt P07858); experiment: cathepsin B assay; type: biochemical; conditions: 0.2 μg/ml cathepsin B, 2 mM Z-Arg-Arg-pNA, pH 5.8, 30° C., 30 min incubation; read-out: IC50 class, Target T-8 (Cathepsin)
Description: as §2

[6] = system: cyclin D1 in MCF-7 and HeLa cells; experiment: Cyclin D1 down regulation (western blot marker analysis); type: cell-based, human
Description: MCF-7 (5×10^5 cells/well) and HeLa cells (1.5×10^5 cells/well) were seeded in 6-well plates and incubated at 37° C. over night. Compounds or DMSO (final solvent concentration 0.1%) were added to the cells and incubated for different times as indicated. Subsequently, cells were lysed in RIPA buffer for 30 min on ice and centrifuged for 20 min at 4° C. After addition of electrophoresis sample buffer (4×) and 50 mM DTT to the supernatant, samples were boiled for 4 min at 95° C. Samples (equivalent to 2×10^5 cells/well) were run on a 15% SDS gel followed by blotting onto PVDF membrane.
The membrane was blocked for 1 h in 10 mM Tris (pH 7.5), 100 mM NaCl, 0.1% Tween-20 and 5% non-fat dry milk (blocking buffer) and incubated for 1 h with mouse anti-hCyclin D1 monoclonal antibody (clone DCS-6, BD Biosciences) diluted to 1 μg/ml in blocking buffer. Blots were washed 3×10 min with 10 mM Tris (pH 7.5), 100 mM NaCl, 0.1% Tween-20 (washing buffer) and incubated with 0.7 μg/ml peroxidase-conjugated sheep anti-mouse IgG (Sigma) in blocking buffer for 1 h. After washing 3×10 min with washing buffer, the plot was developed with the ECL+ detection kit (Amersham Biosciences).

[7] = 20 nM EcParvulin, substrate Suc-Ala-Phe-Pro-Phe-pNA, chymotrypsin, pH 7.8, 6° C., read-out: IC50 class, Target T-5 (EcParv)

Row | Compound | EC50 at 48 h [1] | EC50 at 48 h [2] | EC50 at 48 h [3] | EC50 at 48 h [4] | also measured
1 | CC(C)(C)CC(C)(C)NC(=O)Nc1cc(Cl)ccc1O [Compound 6] | 10 to 50 µM | < 10 µM |  |  | 
2 | CC(C)(C)CC(C)(C)NC(=O)Nc1cccc(Cl)c1O [Compound 54] | 10 to 50 µM | < 10 µM |  |  | 
3 | CC(C)(C)CC(C)(C)NC(=O)Nc1ccc(F)c(F)c1O [Compound 150] | 10 to 50 µM | < 10 µM |  |  | 
4 | Oc1c(Cl)cc(Cl)cc1NC(=S)Nc1ccccc1C(F)(F)F [Compound 221] | 10 to 50 µM | 10 to 50 µM |  |  | 
5 | Cc1c(Cl)cc(NC(=S)NCc2ccccc2)c(O)c1Cl [Compound 254] | 10 to 50 µM | 10 to 50 µM | 10 to 50 µM | 10 to 50 µM | IC50 (hPin1): < 1 µM
6 | Oc1c(Cl)cc(Cl)cc1NCc1ccccc1Sc1ccc(Cl)cc1 [Compound 329] | 10 to 50 µM | 10 to 50 µM | 10 to 50 µM | 10 to 50 µM | 
7 | Oc1c(Cl)cc(Cl)cc1NCc1ccccc1Sc1ccccc1Cl [Compound 332] | 10 to 50 µM |  | 10 to 50 µM | 10 to 50 µM | 
8 | Oc1c(F)cccc1NCc1ccccc1Sc1ccc(Cl)cc1 [Compound 357] | < 10 µM |  | < 10 µM | < 10 µM | cytotoxic effect on the tumor cell lines tested [5]: particular relevance
9 | Oc1c(NCc2ccccc2Sc2ccccc2Cl)ccc(F)c1F [Compound 402] | 10 to 50 µM |  | 10 to 50 µM | 10 to 50 µM | 
10 | Oc1c(NCc2ccccc2Sc2cccc(Cl)c2)ccc(F)c1F [Compound 403] | 10 to 50 µM |  | < 10 µM | < 10 µM | 
11 | CC(O)c1cc(Cl)cc(NCc2ccccc2Sc2ccc(Cl)cc2)c1O (centres unmarked) [Compound 413] | 10 to 50 µM |  | < 10 µM | 10 to 50 µM | 
12 | CC(C)(C)c1ccc(Oc2cccc(CNc3cc(Cl)cc(Cl)c3O)c2)cc1 [Compound 483] |  |  | 10 to 50 µM | 10 to 50 µM | IC50 (hFKBP12): > 100 µM; IC50 (LpCyp18): > 100 µM; IC50 (EcParvulin; [7]): 50 to 100 µM; IC50 (hPin1): 1 to 10 µM; IC50 (hCyp18): 10 to 50 µM
13 | Oc1c(Cl)cc(Cl)cc1NCc1cccc(OCc2ccccc2)c1 [Compound 484] | 10 to 50 µM |  | < 10 µM | < 10 µM | 
14 | COc1ccc(Oc2cccc(CNc3cc(Cl)cc(Cl)c3O)c2)cc1 [Compound 493] | 10 to 50 µM |  | < 10 µM | < 10 µM | 
15 | Cc1c(Cl)cc(NCc2cccc(Oc3ccccc3)c2)c(O)c1Cl [Compound 497] |  |  |  |  | IC50 (Papain): > 100 µM; IC50 (cathepsin B): 10 to 50 µM
16 | Cc1c(Cl)cc(NC(=O)CC(C)CC(C)(C)C)c(O)c1Cl (centres unmarked) [Compound 599] |  |  |  |  | IC50 (hFKBP12): > 100 µM; IC50 (LpCyp18): 50 to 100 µM; IC50 (Papain): > 100 µM; IC50 (EcParvulin): 10 to 50 µM; IC50 (hPin1): 1 to 10 µM; IC50 (hCyp18): > 100 µM; IC50 (cathepsin B): 50 to 100 µM
17 | Oc1ccccc1NCc1ccccc1Sc1ccc(Cl)cc1 [Compound 630] | 10 to 50 µM |  | < 10 µM | < 10 µM | 
18 | O=C(NCc1ccccc1)Nc1cc(Cl)c(O)c(NCc2ccccc2Sc2ccc(Cl)cc2)c1 [Compound 631] | < 10 µM |  |  | 10 to 50 µM | 
19 | O=C(NCCc1ccccc1)Nc1cc(Cl)c(O)c(NCc2ccccc2Sc2ccc(Cl)cc2)c1 [Compound 632] | < 10 µM |  |  | 10 to 50 µM | 
20 | O=C(Nc1ccc(Cl)cc1)Nc1cc(Cl)c(O)c(NCc2ccccc2Sc2ccc(Cl)cc2)c1 [Compound 633] | < 10 µM |  |  | < 10 µM | cytotoxic effect on the tumor cell lines tested [5]: particular relevance
21 | CC(C)NC(=S)Nc1cc(-c2nc3ccccc3s2)cc(Cl)c1O [Compound 639] | < 10 µM | 10 to 50 µM |  |  | cyclin D1 down regulation [6]: particular relevance; IC50 (hPin1): < 1 µM
22 | CC(C)(C)NC(=S)Nc1cc(-c2nc3ccccc3s2)cc(Cl)c1O [Compound 640] | 10 to 50 µM | 10 to 50 µM |  |  | IC50 (hPin1): 1 to 10 µM
23 | O=C(Nc1cc(Cl)cc(Cl)c1O)c1ccc(-c2ccccc2)cc1 [Compound 645] | < 10 µM | < 10 µM | < 10 µM | < 10 µM | cytotoxic effect on the tumor cell lines tested [5]: particular relevance; IC50 (Papain): > 100 µM
24 | Cc1c(Cl)cc(NCc2ccco2)c(O)c1Cl [Compound 646] |  |  |  |  | IC50 (Papain): > 100 µM; IC50 (cathepsin B): > 100 µM
25 | Cc1c(Cl)cc(NCc2ccccc2C(F)(F)F)c(O)c1Cl [Compound 649] |  |  |  |  | IC50 (Papain): > 100 µM; IC50 (cathepsin B): 50 to 100 µM
26 | O=C(Nc1cc(Cl)nc(Cl)c1)Nc1cc(Cl)c(O)c(NCc2ccccc2Sc2ccc(Cl)cc2)c1 [Compound 652] | < 10 µM |  |  | < 10 µM | cytotoxic effect on the tumor cell lines tested [5]: particular relevance
27 | Oc1c(Cl)cc(-c2nc3ccccc3s2)cc1NC(=S)NC1CCCC1 [Compound 653] | < 10 µM | 10 to 50 µM |  |  | 
28 | O=C(Nc1cc(Cl)c(O)c(NCc2ccccc2Sc2ccc(Cl)cc2)c1)N1CCOCC1 [Compound 654] |  | < 10 µM | 10 to 50 µM |  | 
29 | Oc1ccc(NCc2ccccc2Sc2ccc(Cl)cc2)c(O)c1 [Compound 1044] | 10 to 50 µM |  | 10 to 50 µM | 10 to 50 µM | IC50 (hFKBP12): 10 to 50 µM; cytotoxic effect on the tumor cell lines tested [5]: particular relevance; IC50 (LpCyp18): 1 to 10 µM; IC50 (EcParvulin; [7]): 10 to 50 µM; IC50 (hPin1): < 1 µM; IC50 (hCyp18): 10 to 50 µM
